Experimental data as given in patent US20240116910A1, “Heterocycles as WIP1 Inhibitors” (PMV Pharmaceuticals, Inc., priority 2022, published 2024).

Tests used:
[1] = target: recombinant His-tag Wip1 full length protein (amino acids #1-605) (Homo sapiens (Human), UniProt O15297); experiment: Wip1 full length phosphatase enzyme FDP assay; format: biochemical; settings: fluorescein diphosphate (FDP) substrate, RT 2 hours, fluorescence Ex485/Em535
[2] = target: recombinant His-tag Wip1(2-420) protein (amino acids #2-420) (Homo sapiens (Human), UniProt O15297); experiment: Wip1(2-420) phosphatase enzyme FDP assay; format: biochemical; settings: fluorescein diphosphate (FDP) substrate, RT 2 hours, fluorescence Ex485/Em535; read-out: WIP1 (Truncated 2-420) FDP Assay: IC50
recombinant His-tag Wip1(2-420) protein (amino acids #2-420), sequence (O15297 2-420): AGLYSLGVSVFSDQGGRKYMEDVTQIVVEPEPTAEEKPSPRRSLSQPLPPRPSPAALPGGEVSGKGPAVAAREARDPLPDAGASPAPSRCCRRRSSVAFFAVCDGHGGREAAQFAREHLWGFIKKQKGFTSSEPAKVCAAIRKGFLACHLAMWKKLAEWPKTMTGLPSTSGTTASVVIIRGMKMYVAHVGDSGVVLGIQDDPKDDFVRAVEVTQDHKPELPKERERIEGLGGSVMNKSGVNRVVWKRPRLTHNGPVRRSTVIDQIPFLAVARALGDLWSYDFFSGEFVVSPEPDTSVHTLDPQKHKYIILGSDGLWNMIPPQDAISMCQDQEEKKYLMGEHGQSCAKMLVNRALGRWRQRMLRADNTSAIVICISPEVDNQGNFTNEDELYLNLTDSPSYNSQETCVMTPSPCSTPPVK

recombinant His-tag Wip1 full length protein (amino acids #1-605), sequence (O15297 whole entry, the tested form may be a part): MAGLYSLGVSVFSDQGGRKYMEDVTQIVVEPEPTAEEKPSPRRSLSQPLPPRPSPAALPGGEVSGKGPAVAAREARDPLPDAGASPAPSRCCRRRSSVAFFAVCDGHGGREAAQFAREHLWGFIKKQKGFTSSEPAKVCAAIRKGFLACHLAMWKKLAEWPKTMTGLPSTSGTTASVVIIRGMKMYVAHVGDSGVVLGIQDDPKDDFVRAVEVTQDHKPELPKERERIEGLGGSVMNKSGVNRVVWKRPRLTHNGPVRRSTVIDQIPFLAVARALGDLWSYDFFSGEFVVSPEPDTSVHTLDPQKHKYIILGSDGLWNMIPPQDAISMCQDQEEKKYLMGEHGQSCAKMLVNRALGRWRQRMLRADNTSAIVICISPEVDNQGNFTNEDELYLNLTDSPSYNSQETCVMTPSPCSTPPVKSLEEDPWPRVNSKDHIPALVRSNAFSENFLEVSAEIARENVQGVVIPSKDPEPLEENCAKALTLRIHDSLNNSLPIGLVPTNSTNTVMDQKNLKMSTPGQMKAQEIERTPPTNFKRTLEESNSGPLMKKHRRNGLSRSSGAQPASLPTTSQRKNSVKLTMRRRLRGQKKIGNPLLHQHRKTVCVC

IC50 [1] [nM] | IC50 [2] [nM] | SMILES
332 | 122 | CC[C@@H](Nc1cc(Cl)cnc1C)c1ccc(C(=O)N[C@@H](CC2CCCC2)C(=O)NC2CC2)s1 [Compound 39, (2S)-2-({5-[(1R)-1-[(5-chloro-2-methylpyridin-3-yl)amino]propyl]thiophen-2-yl}formamido)-3-cyclopentyl-N-cyclopropylpropanamide]
8 | 5 | CC[C@H](Nc1cc(Cl)cnc1C)c1ccc(C(=O)N[C@@H](CC2CCCC2)C(=O)N[C@H]2CC2(F)F)s1 [Compound 48, (2S)-2-({5-[(1S)-1-[(5-chloro-2-methylpyridin-3-yl)amino]propyl]thiophen-2-yl}formamido)-3-cyclopentyl-N-[(1S)-2,2-difluorocyclopropyl]propanamide]
12 | 9 | Cc1ncc(Cl)cc1N[C@@H](C)c1ccc(C(=O)N[C@@H](CC2CCCC2)C(=O)NC2CCS(=O)(=O)CC2)s1 [Compound 58, (2S)-2-({5-[(1S)-1-[(5-chloro-2-methylpyridin-3-yl)amino]ethyl]thiophen-2-yl}formamido)-3-cyclopentyl-N-(1,1-dioxo-1λ^6-thian-4-yl)propanamide]
15 | 13 | Cc1cc(NC(=O)[C@@H](NC(=O)c2ccc([C@H](C)Nc3cc(Cl)cnc3C)s2)C2CCCCC2)ccn1 [Compound 175, (2S)-2-({5-[(1S)-1-[(5-chloro-2-methylpyridin-3-yl)amino]ethyl]thiophen-2-yl}formamido)-2-cyclohexyl-N-(2-methylpyridin-4-yl)acetamide]
9 | 6 | CC[C@H](Nc1cc(Cl)cnc1C)c1ccc(C(=O)N[C@@H](CC2CCCC2)C(=O)NC2CC2)s1 [Compound 37, (2S)-2-({5-[(1S)-1-[(5-chloro-2-methylpyridin-3-yl)amino]propyl]thiophen-2-yl}formamido)-3-cyclopentyl-N-cyclopropylpropanamide]
9 | 4 | COc1cc(NC(=O)[C@H](CC2CCCC2)NC(=O)c2ccc([C@H](C)Nc3cc(Cl)cnc3C)s2)ccn1 [Compound 156, (2S)-2-({5-[(1S)-1-[(5-chloro-2-methylpyridin-3-yl)amino]ethyl]thiophen-2-yl}formamido)-3-cyclopentyl-N-(2-methoxypyridin-4-yl)propanamide]
8 | 6 | CC[C@H](Nc1cc(Cl)cnc1C)c1ccc(C(=O)N[C@@H](CC2CCCC2)C(=O)NC23CC(C2)C3)s1 [Compound 68, (2S)-N-{bicyclo[1.1.1]pentan-1-yl}-2-({5-[(1S)-1-[(5-chloro-2-methylpyridin-3-yl)amino]propyl]thiophen-2-yl}formamido)-3-cyclopentylpropanamide]
15 | 11 | Cc1ncc(Cl)cc1N[C@@H](C)c1ccc(C(=O)N[C@@H](CC2CCCC2)C(=O)Nc2ccc3c(c2)CCCN3C)s1 [Compound 168, (2S)-2-({5-[(1S)-1-[(5-chloro-2-methylpyridin-3-yl)amino]ethyl]thiophen-2-yl}formamido)-3-cyclopentyl-N-(1-methyl-1,2,3,4-tetrahydroquinolin-6-yl)propanamide]
18 | 10 | CC[C@H](Nc1cc(Cl)cnc1C)c1ccc(C(=O)N[C@@H](CC2CCCC2)C(=O)NC23CC(C#N)(C2)C3)s1 [Compound 80, (2S)-2-({5-[(1S)-1-[(5-chloro-2-methylpyridin-3-yl)amino]propyl]thiophen-2-yl}formamido)-N-{3-cyanobicyclo[1.1.1]pentan-1-yl}-3-cyclopentylpropanamide]

More lines, now with the values behind:

SMILES | IC50 [1] [nM] | IC50 [2] [nM]
Cc1ncc(Cl)cc1N[C@@H](C)c1ccc(C(=O)N[C@@H](CC2CCCC2)C(=O)N[C@H]2CC2(F)F)s1 [Compound 23, (2S)-2-({5-[(1S)-1-[(5-chloro-2-methylpyridin-3-yl)amino]ethyl]thiophen-2-yl}formamido)-3-cyclopentyl-N-[(1S)-2,2-difluorocyclopropyl]propanamide] | 8 | 5
C[C@H](Nc1cccc(Cl)c1)c1ccc(C(=O)N[C@@H](CC2CCCC2)C(=O)NC2CC2)s1 [Compound 2, 5-[(1S)-1-(3-chloroanilino)ethyl]-N-[(1S)-1-(cyclopentylmethyl)-2-(cyclopropylamino)-2-oxo-ethyl]thiophene-2-carboxamide] | 117 | 232
Cc1ncc(Cl)cc1N[C@@H](C)c1ccc(C(=O)N[C@@H](CC2CCCC2)C(=O)N[C@H]2C[C@@H](F)C2)s1 [Compound 28, (2S)-2-({5-[(1S)-1-[(5-chloro-2-methylpyridin-3-yl)amino]ethyl]thiophen-2-yl}formamido)-3-cyclopentyl-N-[(1s,3s)-3-fluorocyclobutyl]propanamide] | 7 | 4
Cc1ncc(Cl)cc1N[C@@H](C)c1ccc(C(=O)N[C@@H](CC2CCCC2)C(=O)N[C@@H]2CC2(F)F)s1 [Compound 24, (2S)-2-({5-[(1S)-1-[(5-chloro-2-methylpyridin-3-yl)amino]ethyl]thiophen-2-yl}formamido)-3-cyclopentyl-N-[(1R)-2,2-difluorocyclopropyl]propanamide] | 8 | 8
COC(=O)C12CC(NC(=O)[C@H](CC3CCCC3)NC(=O)c3ccc([C@H](C)Nc4cc(Cl)cnc4C)s3)(C1)C2 [Compound 19, methyl 3-[(2S)-2-({5-[(1S)-1-[(5-chloro-2-methylpyridin-3-yl)amino]ethyl]thiophen-2-yl}formamido)-3-cyclopentylpropanamido]bicyclo[1.1.1]pentane-1-carboxylate] | 13 | 11
Cc1ncc(Cl)cc1N[C@H](C)c1ccc(C(=O)N[C@@H](CC2CCCC2)C(=O)NC2CC2(F)F)s1 (stereo partly drawn) [Compound 15, (2S)-2-({5-[(1R)-1-[(5-chloro-2-methylpyridin-3-yl)amino]ethyl]thiophen-2-yl}formamido)-3-cyclopentyl-N-(2,2-difluorocyclopropyl)propanamide] | 71 | 80
Cc1ncc(Cl)cc1NC(C)c1ccc(C(=O)N[C@@H](CC2CCCC2)C(=O)NC23CC(C2)C3)s1 (stereo partly drawn) [Compound 10, N-[(1S)-2-(1-bicyclo [1.1.1]pentanylamino)-1-(cyclopentylmethyl)-2-oxo-ethyl]-5-[1-[(5-chloro-2-methyl-3-pyridyl)amino]ethyl]thiophene-2-carboxamide] | 18 | 10
Cc1ncc(Cl)cc1N[C@@H](C)c1ccc(C(=O)N[C@@H](CC2CCCC2)C(=O)NC2COC2)s1 [Compound 27, (2S)-2-({5-[(1S)-1-[(5-chloro-2-methylpyridin-3-yl)amino]ethyl]thiophen-2-yl}formamido)-3-cyclopentyl-N-(oxetan-3-yl)propanamide] | 10 | 6
Cc1ncc(Cl)cc1N[C@@H](C)c1ccc(C(=O)N[C@@H](CC2CCCC2)C(=O)NC23CC(F)(C2)C3)s1 [Compound 16, (2S)-2-({5-[(1S)-1-[(5-chloro-2-methylpyridin-3-yl)amino]ethyl]thiophen-2-yl}formamido)-3-cyclopentyl-N-{3-fluorobicyclo[1.1.1]pentan-1-yl}propanamide] | 10 | 7
